Results: patent EP2832223A1, “HERBICIDAL COMPOSITION” (Ishihara Sangyo Kaisha, Ltd., priority 2012, dated 2013)

Assays:
Format in all cases: in vivo
[1] = test system: common cocklebur (Xanthium strumarium L.); test: Test Example 1: pot test, foliar treatment, visual growth inhibition; conditions: 1000 g/ha, foliar treatment at 4.3 to 4.8-leaf stage, 22nd day after treatment, read-out: Growth inhibition rate (%) of common cocklebur Measured value
Source text: In the present invention, a synergistic effect means a higher herbicidal activity of three active ingredients combined, than the simple sum of the respective herbicidal activities of the three active ingredients (the expected activity). The activity expected by the combination of three active ingredients can be calculated as follows (Colby S.R., "Weed", vol. 15, p. 20-22, 1967). […] Upland field soil was put into a 1/300,000 ha pot, and seeds of common cocklebur (Xanthium strumarium L.) were sown. […] Click, manufactured by BASF) and EC formulation containing dimethenamid-P as an active ingredient (tradename: Spectrum, manufactured by BASF) were diluted with water (in an amount corresponding to 1,000 L/ha) and applied for foliar treatment by a small sprayer. On the 22nd day after treatment, the state of growth of the common cocklebur was visually observed to determine the growth inhibition rate (%) in accordance with the following evalution standard. The growth inhibition rate (%) (measured value) and the growth inhibition rate (%) (calculated value) calculated by the Colby's formula are shown in Table 1.

[2] = test system: guinea grass (Panicum maximum Jacq.); test: Test Example 17: pot test, soil and foliar treatment, visual growth inhibition; conditions: Megathyrsus maximus, 1000 g/ha, 29th day after treatment, read-out: Growth inhibition rate (%) of guinea grass Measured value
Experimental: (§1) Upland field soil was put into a 1/1,000,000 ha pot, and seeds of guinea grass (Panicum maximum Jacq.) were sown. When the guinea grass reached 5.2 to 6.0-leaf stage, seeds of guinea grass were further sown in the same pot assuming conditions such that weeds would later grow. Three days later, predetermined amounts of ONEHOPE NYUZAI (tradename), Click (tradename) and Spectrum (tradename) were diluted with water in an amount corresponding to 300 L/ha and applied for soil treatment and for foliar treatment by a small sprayer.
(§2) On the 29th day after treatment, the state of growth of the guinea grass was visually observed to determine the growth inhibition rate (%). The growth inhibition rate (%) (measured value) and the growth inhibition rate (%) calculated in the same manner as in the above Test Example 1 are shown in Table 17.

[3] = test system: rostrate sesbania (Sesbania rostrata Bremek. & Oberm.); test: Test Example 8: pot test, soil treatment, visual growth inhibition; conditions: 2000 g/ha, soil treatment, 28th day after treatment, read-out: Growth inhibition rate (%) of rostrate sesbania Measured value
Experimental: (§3) Upland field soil was put into a 1/300,000 ha pot, and seeds of rostrate sesbania (Sesbania rostrata Bremek. & Oberm.) were sown. On the next day, predetermined amounts of ONEHOPE NYUZAI (tradename), Click (tradename), Spectrum (tradename) and Clio (tradename) were diluted with water (in an amount corresponding to 1,000 L/ha) and applied for soil treatment by a small sprayer.
as §2, with “28th” for “29th”, “rostrate sesbania” for “guinea grass”, “8.” for “17.”

[4] = test system: guinea grass (Panicum maximum Jacq.); test: Test Example 15: pot test, soil and foliar treatment, visual growth inhibition; conditions: Megathyrsus maximus, 31st day after treatment, read-out: Growth inhibition rate (%) of guinea grass Measured value
Experimental: as §1, with “On the next day,” for “Three days later,”, “Click (tradename), Spectrum” for “Click”, “Cadou” for “Spectrum”
as §2, with “31 st” for “29th”, “15.” for “17.”

[5] = test system: prickly sida (Sida spinosa L.); test: Test Example 10: pot test, soil treatment, visual growth inhibition; conditions: 200 g/ha, soil treatment, 28th day after treatment, read-out: Growth inhibition rate (%) of prickly sida Measured value
Experimental: as §3, with “prickly sida (Sida spinosa L.)” for “rostrate sesbania (Sesbania rostrata Bremek. & Oberm.)”, “Spectrum (tradename), Callisto” for “Spectrum”
as §2, with “28th” for “29th”, “prickly sida” for “guinea grass”, “10.” for “17.”

[6] = test system: wild oat (Avena fatua L.); test: Test Example 4: pot test, soil treatment, visual growth inhibition; conditions: soil, read-out: Growth inhibition rate (%) of wild oat Measured value
Experimental: (§4) Upland field soil was put into a 1/1,000,000 ha pot, and seeds of wild oat (Avena fatua L.) were sown. On the next day, predetermined amounts of ONEHOPE NYUZAI (tradename), Click (tradename) and a wettable powder containing bicyclopyrone prepared in accordance with a conventional formulation method were diluted with water (in an amount corresponding to 1,000 L/ha) and applied for soil treatment by a small sprayer.
as §2, with “28th” for “29th”, “wild oat” for “guinea grass”, “4.” for “17.”

[7] = test system: sunn-hemp (Crotalaria juncea L.); test: Test Example 7: pot test, soil treatment, visual growth inhibition; conditions: soil, read-out: Growth inhibition rate (%) of sunn-hemp Measured value
Experimental: as §4, with “1/300,000” for “1/1,000,000”, “sunn-hemp (Crotalaria juncea” for “wild oat (Avena fatua”, “Click (tradename), Mikado” for “Click”
as §2, with “28th” for “29th”, “sunn-hemp” for “guinea grass”, “7.” for “17.”

[8] = test system: annual ragweed (Ambrosia artemisiifolia L.); test: Test Example 11: pot test, soil treatment, visual growth inhibition; conditions: soil, read-out: Growth inhibition rate (%) of annual ragweed Measured value
Experimental: as §4, with “1/300,000” for “1/1,000,000”, “annual ragweed (Ambrosia artemisiifolia” for “wild oat (Avena fatua”, “Click (tradename), Mikado” for “Click”
as §2, with “28th” for “29th”, “annual ragweed” for “guinea grass”, “11.” for “17.”

[9] = test system: Japanese millet (Echinochloa utilis Ohwi et Yabuno); test: Test Example 9: pot test, soil treatment, visual growth inhibition; conditions: soil, read-out: Growth inhibition rate (%) of Japanese millet Measured value
Experimental: as §4, with “1/300,000” for “1/1,000,000”, “Japanese millet (Echinochloa utilis Ohwi et Yabuno)” for “wild oat (Avena fatua L.)”, “Click (tradename), Mikado” for “Click”
as §2, with “28th” for “29th”, “Japanese millet” for “guinea grass”, “9.” for “17.”

[10] = test system: korean lespedeza (Kummerowia stipulacea (Maxim.) Makino); test: Test Example 6: pot test, soil treatment, visual growth inhibition; conditions: soil, read-out: Growth inhibition rate (%) of korean lespedeza Measured value
Experimental: as §4, with “1/300,000” for “1/1,000,000”, “korean lespedeza (Kummerowia stipulacea (Maxim.) Makino)” for “wild oat (Avena fatua L.)”, “Click (tradename), Mikado” for “Click”
as §2, with “14th” for “29th”, “korean lespedeza” for “guinea grass”, “6.” for “17.”

[11] = test system: velvetleaf (Abutilon theophrasti Medic.); test: Test Example 14: pot test, soil and foliar treatment, visual growth inhibition; conditions: read-out: Growth inhibition rate (%) of velvetleaf Measured value
Source text: (§5) Upland field soil was put into a 1/1,000,000 ha pot, and seeds of velvetleaf (Abutilon theophrasti Medic.) were sown. When the velvetleaf reached 4.0 to 4.3-leaf stage, seeds of velvetleaf were further sown in the same pot assuming conditions such that weeds would later grow. On the next day, predetermined amounts of ONEHOPE NYUZAI (tradename), Click (tradename), Callisto (tradename), Mikado (tradename), a wettable powder containing bicyclopyrone as an active ingredient and Clio (tradename) were diluted with water in an amount corresponding to 300 L/ha and applied for soil treatment and for foliar treatment by a small sprayer.
as §2, with “31 st” for “29th”, “velvetleaf” for “guinea grass”, “14.” for “17.”

[12] = test system: velvetleaf (Abutilon theophrasti Medic.); test: Test Example 16: pot test, soil and foliar treatment, visual growth inhibition; conditions: read-out: Growth inhibition rate (%) of velvetleaf Measured value
Source text: as §5, with “Three days later,” for “On the next day,”
as §2, with “velvetleaf” for “guinea grass”, “16.” for “17.”

[13] = test system: Japanese millet (Echinochloa utilis Ohwi et Yabuno); test: Test Example 13: pot test, soil and foliar treatment, visual growth inhibition; conditions: read-out: Growth inhibition rate (%) of Japanese millet Measured value
Experimental: as §4, with “Japanese millet (Echinochloa utilis Ohwi et Yabuno)” for “wild oat (Avena fatua L.)”, “sown. When the Japanese millet reached 3.8 to 4.0-leaf stage, seeds of Japanese millet were further sown in the same pot.” for “sown.”, “treatment and for foliar treatment” for “treatment”
as §2, with “28th” for “29th”, “Japanese millet” for “guinea grass”, “13.” for “17.”

| Compound | inhibition at 1000 g/ha [1] | inhibition at 1000 g/ha [2] | inhibition at 2000 g/ha [3] | inhibition at 500 g/ha ([4]; 500 g/ha) | inhibition at 1000 g/ha ([4]; 1000 g/ha) | inhibition at 200 g/ha [5] | inhibition at 100 g/ha [6] | inhibition at 25 g/ha [7] | inhibition at 100 g/ha [8] | inhibition at 25 g/ha [9] | inhibition at 400 g/ha [10] | inhibition at 50 g/ha [11] | inhibition at 150 g/ha [11] | inhibition at 75 g/ha [12] | inhibition at 100 g/ha [13] |
| --- | --- | --- | --- | --- | --- | --- | --- | --- | --- | --- | --- | --- | --- | --- | --- |
| COC[C@H](C)N(C(=O)CCl)c1c(C)csc1C [Dimethenamid-P, (S)-2-chloro-N-(2,4-dimethyl-3-thienyl)-N-(2-methoxy-1-methylethyl)acetamide] | 0% | 55% | 40% | 57% | 60% | 0% | – | – | – | – | – | – | – | – | – |
| COCCOCc1nc(C(F)(F)F)ccc1C(=O)C1=C(O)C2CCC(C2)C1=O (stereo not drawn) [Bicyclopyrone, 4-hydroxy-3-{2-[(2-methoxyethoxy)methyl]-6-(trifluoromethyl)-3-pyridylcarbonyl}bicyclo[3.2.1]oct-3-en-2-one] | – | – | – | – | – | – | 25% | 20% | 88% | 83% | 15% | 88% | 93% | 89% | 78% |
